According to patent publication US11524966B1 (Valo Early Discovery, Inc., priority 2017, dated 2022):

Target: T1, USP28 (His-tagged USP28-FL-mammalian) (Homo sapiens, UniProt Q96RU2)
T1 construct: Expression of USP28 (1-1077)-TEV-6*His (pTT5 vector); made in house; host or cells: Expi293f cells (pTT5 vector)
T1 sequence (Q96RU2 1-1077): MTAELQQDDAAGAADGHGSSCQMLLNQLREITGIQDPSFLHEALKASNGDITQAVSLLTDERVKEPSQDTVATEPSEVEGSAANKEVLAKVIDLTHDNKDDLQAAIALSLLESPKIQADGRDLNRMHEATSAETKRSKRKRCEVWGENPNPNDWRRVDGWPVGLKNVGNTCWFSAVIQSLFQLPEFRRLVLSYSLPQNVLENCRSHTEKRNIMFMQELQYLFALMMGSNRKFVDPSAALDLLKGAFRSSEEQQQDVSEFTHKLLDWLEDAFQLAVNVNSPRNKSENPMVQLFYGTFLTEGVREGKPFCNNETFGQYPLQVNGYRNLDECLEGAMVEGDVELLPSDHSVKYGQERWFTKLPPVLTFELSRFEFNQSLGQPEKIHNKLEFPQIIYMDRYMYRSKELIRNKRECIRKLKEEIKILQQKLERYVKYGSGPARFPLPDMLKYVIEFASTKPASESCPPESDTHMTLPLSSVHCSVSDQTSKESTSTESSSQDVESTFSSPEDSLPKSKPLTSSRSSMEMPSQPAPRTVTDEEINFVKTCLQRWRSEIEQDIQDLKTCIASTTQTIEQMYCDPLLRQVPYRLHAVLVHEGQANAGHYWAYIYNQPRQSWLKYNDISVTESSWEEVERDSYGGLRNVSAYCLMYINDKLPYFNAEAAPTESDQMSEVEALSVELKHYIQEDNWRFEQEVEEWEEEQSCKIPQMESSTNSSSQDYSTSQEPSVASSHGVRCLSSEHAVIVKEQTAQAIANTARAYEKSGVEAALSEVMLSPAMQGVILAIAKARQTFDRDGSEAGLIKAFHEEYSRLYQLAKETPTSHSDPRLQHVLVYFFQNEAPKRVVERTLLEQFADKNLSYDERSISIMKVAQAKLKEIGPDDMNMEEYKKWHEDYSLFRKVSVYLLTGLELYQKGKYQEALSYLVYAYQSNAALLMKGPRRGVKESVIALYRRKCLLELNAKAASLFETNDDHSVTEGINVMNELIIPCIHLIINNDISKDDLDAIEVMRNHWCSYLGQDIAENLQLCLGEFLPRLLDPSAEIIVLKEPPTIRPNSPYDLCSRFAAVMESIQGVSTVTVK
Experiment: Ubiquitin-Rhodamine 110 Assay for USP28 Activity, Example A-1(a)
Type: biochemical
Conditions: Ubiquitin-Rhodamine 110 assay, Example A-1(a); read-out: USP28 A-1(a) IC50 range
Protocol: Example A-1(a): Biochemical Assay: Ubiquitin-Rhodamine 110 Assay for USP28 Activity
The assay was performed in a final volume of 9 μL in assay buffer containing 20 mM Tris-HCl (pH 8.0, (1M Tris-HCl, pH 8.0 solution; Corning 46-031-CM)), 3 mM BME (2-Mercaptoethanol; Sigma 63689-25ML-F), 0.03% BGG (0.22 μM filtered, Sigma, G7516-25G), and 0.01% Triton X-100 (Sigma, T9284-10L). Nanoliter quantities of 10-point, 3-fold serial dilution in DMSO was pre-dispensed into 1536 assay plates (Corning, #3724BC) for a final test concentration of 25 μM to 1.3 nM, top to lowest dose, respectively. Enzyme USP28, construct His-tagged USP28-FL-mammalian, (protein expression and purification procedure described below). Concentration and incubation times were optimized for the maximal signal-to-background while maintaining initial velocity conditions at a fixed substrate concentration. The final concentration of the enzyme in the assay was 75 μM. Final substrate (Ub-Rh110; Ubiquitin-Rhodamine 110, UbiQ-126) concentration was 25 nM with [Ub-Rh110]<<Km. 3 μL of 2× enzyme was added to assay plates (pre-stamped with compound) preincubated with […] for 30 minutes and then 3 μL of 2×Ub-Rh110 was added to assay plates. Plates were incubated for 45 minutes at room temperature before addition of 3 μL of stop solution (final concentration of 10 mM citric acid (Sigma, 251275-500G)). Fluorescence was read on the Envision (Excitation at 485 nm and Emission at 535 nm; Perkin Elmer) or on the PheraSTAR (Excitation at 485 nm and Emission at 535 nm; BMG Labtech).
Procedure for the Protein Expression and Purification for Construct His-Tagged USP28-FL-Mammalian
Expression of USP28 (1-1077)-TEV-6*His (pTT5 vector) was carried out in Expi293f cells (sequence derived from uniprot ID: Q96RU2-1). Cells were re-suspended in lysis buffer B 50 mM Bicine, pH 8.0, 20 mM NaCl, 5% glycerol, 0.1% CHAPS, 5 mM β-ME, 1 mM PMSF, 1 ug/ml Leupeptin, 1 ug/ml Pepstatin) and lysed by sonication. Insoluble material was removed by centrifugation and the supernatant was loaded onto a Ni-NTA column (GE Healthcare) equilibrated with Ni Buffer A (50 mM Bicine, pH 8.0, 20 mM NaCl, 5% glycerol, 0.1% CHAPS, 5 mM β-ME.) and washed with Ni Buffer A+20 mM imidazole until A280 reached baseline. The protein was eluted with Ni Buffer B (50 mM Bicine, pH 8.0, 20 mM NaCl, 5% glycerol, 0.1% CHAPS, 5 mM β-ME, 300 mM imidazole.). The protein was further purified using a Superdex™ 200 10/300 GL column (GE Healthcare) equilibrated with 50 mM Bicine, pH 8.0, 20 mM NaCl, 5% glycerol, 0.1% CHAPS, 5 mM β-ME. The protein was concentrated to 2.5 mg ml^−1, flash-frozen in liquid N2 and stored at −80° C.
For assay formats Example A-1(a), A-1(b), and A-2, data were reported as percent inhibition compared with control wells based on the following equation: % inh=1−((FLU−AveLow)/(AveHigh−AveLow)) where FLU=measured Fluorescence, AveLow=average Fluorescence of no enzyme control (n=16), and AveHigh=average Fluorescence of DMSO control (n=16). IC50 values were determined by curve fitting of the standard 4 parameter logistic fitting algorithm included in the Activity Base software package: IDBS XE Designer Model 205. Data is fitted using the Levenburg Marquardt algorithm.

Q: For `CO[C@H]1CN(c2ncc3c(n2)CC[C@@H](NC(=O)c2sc4nc(C)ccc4c2N)C3)C[C@@H]1N` [Example 187, 3-amino-N-[(6R)-2-[(3S,4S)-3-amino-4-methoxypyrrolidin-1-yl]-5,6,7,8-tetrahydroquinazolin-6-yl]-6-methylthieno[2,3-b]pyridine-2-carboxamide], which IC50 is on record?
A: 200 to 2000 nM

Q: Which IC50 does the source give for `Cc1ccc2c(N)c(C(=O)N[C@H]3CCc4nc(N5C[C@H](OC(C)C)[C@@H](N)C5)ncc4C3)sc2n1` [Example 271, 3-amino-N-[(6S)-2-[(3S,4S)-3-amino-4-(propan-2-yloxy)pyrrolidin-1-yl]-5,6,7,8-tetrahydroquinazolin-6-yl]-6-methylthieno[2,3-b]pyridine-2-carboxamide] here?
A: > 2000 nM

Q: How did the IC50 turn out when `Cc1ccc2c(N)c(C(=O)N[C@@H]3CCc4nc(N5C[C@H](OC(C)C)[C@@H](N)C5)ncc4C3)sc2n1` [Example 272, 3-amino-N-[(6R)-2-[(3S,4S)-3-amino-4-(propan-2-yloxy)pyrrolidin-1-yl]-5,6,7,8-tetrahydroquinazolin-6-yl]-6-methylthieno[2,3-b]pyridine-2-carboxamide] was run?
A: 200 to 2000 nM

Q: Which IC50 does the source give for `CO[C@H]1CN(c2ncc3c(n2)CC[C@H](NC(=O)c2sc4nc(C)cc(C)c4c2N)C3)C[C@@H]1N` [Example 273, 3-amino-N-[(6S)-2-[(3S,4S)-3-amino-4-methoxypyrrolidin-1-yl]-5,6,7,8-tetrahydroquinazolin-6-yl]-4,6-dimethylthieno[2,3-b]pyridine-2-carboxamide] here?
A: > 2000 nM

Q: For `CO[C@H]1CN(c2ncc3c(n2)CC[C@@H](NC(=O)c2sc4nc(C)cc(C)c4c2N)C3)C[C@@H]1N` [Example 274, 3-amino-N-[(6R)-2-[(3S,4S)-3-amino-4-methoxypyrrolidin-1-yl]-5,6,7,8-tetrahydroquinazolin-6-yl]-4,6-dimethylthieno[2,3-b]pyridine-2-carboxamide], which IC50 is on record?
A: 200 to 2000 nM

Q: `CO[C@@]12CCN[C@H]1CN(c1ccc3c(c1)OC[C@H](NC(=O)c1sc4nc(C)ccc4c1N)C3)C2` [Example 289, N-[(3R)-7-[(3aR,6aS)-3a-methoxy-octahydropyrrolo[2,3-c]pyrrol-5-yl]-3,4-dihydro-2H-1-benzopyran-3-yl]-3-amino-6-methylthieno[2,3-b]pyridine-2-carboxamide] was tested. Which IC50 did it give?
A: 1 to 50 nM

Q: With `CO[C@]12CCN[C@@H]1CN(c1ccc3c(c1)OC[C@H](NC(=O)c1sc4nc(C)ccc4c1N)C3)C2` [Example 290, N-[(3R )-7-[(3aS,6aR)-3a-methoxy-octahydropyrrolo[2,3-c]pyrrol-5-yl]-3,4-dihydro-2H-1-benzopyran-3-yl]-3-amino-6-methylthieno[2,3-b]pyridine-2-carboxamide] as the compound, how does the IC50 read?
A: 1 to 50 nM

Q: For `Cc1ccc2c(N)c(C(=O)N[C@H]3CCc4nc(N5C[C@@H]6CCN[C@H](C5)C6(F)F)ccc4C3)sc2n1` [Example 367, 3-amino-N-[(6S)-2-[(1R,5S)-9,9-difluoro-2,7-diazabicyclo[3.3.1]nonan-7-yl]-5,6,7,8-tetrahydroquinolin-6-yl]-6-methylthieno[2,3-b]pyridine-2-carboxamide], which IC50 is on record?
A: 1 to 50 nM

Q: Which IC50 does the source give for `Cc1ccc2c(N)c(C(=O)N[C@H]3CCc4nc(N5C[C@H]6CCN[C@@H](C5)C6(F)F)ccc4C3)sc2n1` [Example 368, 3-amino-N-[(6S)-2-[(1S,5R)-9,9-difluoro-2,7-diazabicyclo[3.3.1]nonan-7-yl]-5,6,7,8-tetrahydroquinolin-6-yl]-6-methylthieno[2,3-b]pyridine-2-carboxamide] here?
A: 1 to 50 nM

Q: With `CCn1ccc2cc(C(=O)N[C@H]3CCc4nc(N5C[C@H](C(F)F)[C@@H](N)C5)ccc4C3)cnc21` [Example 370, N-[(6S)-2-[(3R,4S)-3-amino-4-(difluoromethyl)pyrrolidin-1-yl]-5,6,7,8-tetrahydroquinolin-6-yl]-1-ethyl-1H-pyrrolo[2,3-b]pyridine-5-carboxamide] as the compound, how does the IC50 read?
A: 200 to 2000 nM

Q: Which IC50 does the source give for `CCn1ccc2cc(C(=O)N[C@H]3CCc4nc(N5C[C@@H](N)[C@H](C(F)F)C5)ccc4C3)cnc21` [Example 371, N-[(6S)-2-[(3S,4R)-3-amino-4-(difluoromethyl)pyrrolidin-1-yl]-5,6,7,8-tetrahydroquinolin-6-yl]-1-ethyl-1H-pyrrolo[2,3-b]pyridine-5-carboxamide] here?
A: 200 to 2000 nM

Q: For `CC(=O)N[C@@H]1CN(c2ccc3c(n2)CC[C@H](NC(=O)c2sc4nc(C)ccc4c2N)C3)C[C@H]1C(F)F` [Example 372, 3-amino-N-[(6S)-2-[(3R,4S)-3-(difluoromethyl)-4-acetamidopyrrolidin-1-yl]-5,6,7,8-tetrahydroquinolin-6-yl]-6-methylthieno[2,3-b]pyridine-2-carboxamide], which IC50 is on record?
A: 50 to 200 nM

Q: How did the IC50 turn out when `COCC1(N)CN(c2ccc3c(c2)OC[C@H](NC(=O)c2sc4nc(C)ccc4c2N)C3)C1` [Example 373, 3-amino-N-[(3R)-7-[3-amino-3-(methoxymethyl)azetidin-1-yl]-3,4-dihydro-2H-1-benzopyran-3-yl]-6-methylthieno[2,3-b]pyridine-2-carboxamide] was run?
A: 1 to 50 nM

Q: Which IC50 does the source give for `Cc1ccc2c(N)c(C(=O)N[C@H]3CCc4nc(N5CCN[C@H](C(F)F)C5)ccc4C3)sc2n1` [Example 374, 3-amino-N-[(6S)-2-[(3S)-3-(difluoromethyl)piperazin-1-yl]-5,6,7,8-tetrahydroquinolin-6-yl]-6-methylthieno[2,3-b]pyridine-2-carboxamide] here?
A: 50 to 200 nM

Q: How did the IC50 turn out when `Cc1ccc2c(N)c(C(=O)N[C@H]3CCc4nc(N5CCN[C@@H](C(F)F)C5)ccc4C3)sc2n1` [Example 375, 3-amino-N-[(6S)-2-[(3R)-3-(difluoromethyl)piperazin-1-yl]-5,6,7,8-tetrahydroquinolin-6-yl]-6-methylthieno[2,3-b]pyridine-2-carboxamide] was run?
A: 50 to 200 nM

Q: With `CN[C@H]1CN(c2ccc3c(n2)CC[C@H](NC(=O)c2sc4nc(C)ccc4c2N)C3)C[C@@H]1C(F)F` [Example 376, 3-amino-N-[(6S)-2-[(3S,4R)-3-(difluoromethyl)-4-(methylamino)pyrrolidin-1-yl]-5,6,7,8-tetrahydroquinolin-6-yl]-6-methylthieno[2,3-b]pyridine-2-carboxamide] as the compound, how does the IC50 read?
A: 50 to 200 nM
